The numbers were not newly measured in US9493497B2, “Carbamate glycolipid and use thereof” (RIKEN, priority 2012, dated 2016), which cites them from elsewhere.

SMILES strings stand for the structures.

Experiment in series [1]: not given
This is another data set of the same source.

As for `CCCCCCCCCCCCCCCCCCCCCCCCCC(=O)N[C@@H](CO[C@H]1OC(CO)[C@H](O)C(O)C1O)[C@H](O)[C@H](O)CCCCCCCCCCCCCC` (stereo partly shown) [KRN7000], the anti-tumor activity entry in the series on tumor is on record as “extremely strong anti-tumor activity”. With `CCCCCCCC/C=C\CCCCCCCCCCCCCC(=O)N[C@@H](CO[C@H]1OC(CNC(C)=O)[C@H](O)[C@H](O)C1O)[C@H](O)[C@H](O)CCCCCCCCCCCCCC` (stereo partly shown) [PBS-57], the “solubility in DMSO” value is reported as “improved solubility in DMSO”. Take `CCCCCCCCCCCCCCCCCCCCCCCCCC(=O)N[C@@H](CO[C@H]1CC(CO)[C@H](O)[C@H](O)C1O)[C@H](O)[C@H](O)CCCCCCCCCCCCCC` (stereo partly shown) [RCAI-56]: the “NKT cell activation / IFN-γ production induction” value in the series with NKT cells was “strongly activates NKT cells and induces production of a large amount of IFN-γ”. On to `CCCCCCCCCCCCCCCCCCCCCCCCCC(=O)N[C@@H](CO[C@H]1O[C@H](COC)[C@H](O)[C@H](O)[C@H]1O)[C@H](O)[C@H](O)CCCCCCCCCCCCCC` [RCAI-61], for which, in series [1], the solubility in water result is recorded as “low solubility in water”. Further, the “NKT cell activation / IFN-γ production induction” value in the series on NKT cells is “induces production of IFN-γ in large amounts”.

Consider `CCCCCCCCCCCCCCCCCCCCCCCCCC(=O)N[C@@H](CC[C@H]1OC(CO)[C@H](O)C(O)C1O)[C@H](O)[C@H](O)CCCCCCCCCCCCCC` (stereo partly drawn) [α-C-GalCer], for which the “cytokine production in human NKT cells” value in the series on human NKT cells is listed as “scarcely induces cytokine production”. Further, in the series with NKT cells of mouse, the “activation of NKT cells of mouse” value is “strongly activates NKT cells of mouse and preferentially produces IFN-γ”.
